Patent EP0054589B1, “Organic phosphoric acid ester derivatives, a process for preparing the same and insecticidal, miticidal or nematocidal compositions containing the same” (priority 1980, dated 1982)
Like-named read-outs stand apart in the source and are kept apart here.

What was measured:
[1] = test system: rice stem borer; assay: Insecticidal effect on rice stem borer, 3rd-instar larvae (rice seedling dip); format: in vivo, Chilo suppressalis; settings: after 72 hours, 25°C
Experimental: (§1) (A) A wettable powder prepared as described in Formulation Example 5 was diluted with water to a predetermined concentration. Rice seedlings were dipped into the dilute solution and placed in a 60 ml volume cup made of vinyl chloride resin, and 10 3rd-instar larvae of rice stem borer were put in each cup. The cups were capped and maintained at 25°C.
as §1, with “(B) A” for “(A) A”, “Example 7” for “Example 5”

[2] = test system: tobacco cutworm; assay: Insecticidal effect on tobacco cutworm (cabbage leaf dip); format: in vivo, Prodenia litura; settings: after 48 hours, 25°C
Experimental: (§2) (A) An emulsifiable concentrate prepared as described in Formulation Example 1 was diluted with water to a predetermined concentration and then cabbage leaves were dipped into the dilute solution and dried in air and placed in a 60 ml volume cup made of vinyl chloride resin. 3rd-instar larvae of tobacco cutworm were put in each cup and maintained at 25°C. After 48 hours, percent mortality was assessed. The test was replicated 3 times for each compound using 30 insects in each test.
as §2, with “(B)” for “(A)”, “3” for “1”

[3] = test system: apple leaf miner; assay: Insecticidal effect on apple leaf miner (sprayed apple seedling); format: in vivo, Lithocolletis ringoniella; settings: Phyllonorycter ringoniella, 336 h, 500 ppm, fourteen days after spraying
Experimental: (§3) (A) A dilute water suspension of a wettable powder prepared as described in Formulation Example 5 was sufficiently sprayed using a spray-gun on a seedling of an apple tree planted in a bisque flower pot to which plant larvae of apple leaf miner just after hatching were parasitic. Thereafter the pots were placed in a green house. Fourteen days after the spraying, bores made by larvae were broken and percent mortality was assessed for all the leaves of each seedling. Three pots were used for each treatment.
as §3, with “(B)” for “(A)”, “7” for “5”

[4] = test system: Tomato; assay: Phytotoxicity on various crops; format: in vivo; design: key: Symbol — indicates that no toxicity was observed; settings: 500 ppm sprayed; checked visually after 10 days
Experimental: (§4) An emulsifiable concentrate prepared as described in Formulation Example 2 was diluted with water to a concentration of 500 ppm based on the effective ingredient and sprayed sufficiently using a spray-gun onto various test plants. The plants were kept in a green house. After 10 days from the application phytotoxicity was checked visually. The test was replicated 3 times for each compound.

[5] = test system: Tea; assay: Phytotoxicity on various crops; format: in vivo; design: key: Symbol — indicates that no toxicity was observed; settings: 500 ppm sprayed; checked visually after 10 days
Experimental: as §4

[6] = test system: Green Pepper; assay: Phytotoxicity on various crops; format: in vivo; design: key: Symbol — indicates that no toxicity was observed; settings: 500 ppm sprayed; checked visually after 10 days
Experimental: as §4

[7] = test system: Cabbage; assay: Phytotoxicity on various crops; format: in vivo; design: key: Symbol — indicates that no toxicity was observed; settings: 500 ppm sprayed; checked visually after 10 days
Experimental: as §4

[8] = test system: Cotton; assay: Phytotoxicity on various crops; format: in vivo; design: key: Symbol — indicates that no toxicity was observed; settings: 500 ppm sprayed; checked visually after 10 days
Experimental: as §4

[9] = test system: Apple; assay: Phytotoxicity on various crops; format: in vivo; design: key: Symbol — indicates that no toxicity was observed; settings: 500 ppm sprayed; checked visually after 10 days
Experimental: as §4

[10] = test system: Cucumber; assay: Phytotoxicity on various crops; format: in vivo; design: key: Symbol — indicates that no toxicity was observed; settings: 500 ppm sprayed; checked visually after 10 days
Experimental: as §4

[11] = test system: Beet; assay: Phytotoxicity on various crops; format: in vivo; design: key: Symbol — indicates that no toxicity was observed; settings: 500 ppm sprayed; checked visually after 10 days
Experimental: as §4

[12] = test system: Kidney Bean; assay: Phytotoxicity on various crops; format: in vivo; design: key: Symbol — indicates that no toxicity was observed; settings: 500 ppm sprayed; checked visually after 10 days
Experimental: as §4

[13] = test system: Rice; assay: Phytotoxicity on various crops; format: in vivo; design: key: Symbol — indicates that no toxicity was observed; settings: 500 ppm sprayed; checked visually after 10 days
Experimental: as §4

[14] = test system: egg plant; assay: Phytotoxicity on various crops; format: in vivo; design: key: Symbol — indicates that no toxicity was observed; settings: 500 ppm sprayed; checked visually after 10 days
Experimental: as §4

[15] = test system: diamond back moth; assay: Insecticidal effect on diamond-back moth (cabbage leaf dip); format: in vivo, Plutella xylostella; settings: 100 ppm, after 72 hours, 25°C
Experimental: (§5) (A) An emulsifiable concentrate prepared as described in Formulation Example 1 was diluted with water to a predetermined concentration and leaves of a cabbage were dipped into the dilute emulsion for 10 seconds followed by drying in air, and charged in a 60 ml volume cup made of vinyl chloride resin. Then, thirty 3rd-instar larvae of diamond back moth were put in each cup, and the cups were kept at 25°C. After 72 hours, percent mortality was assessed and the test was replicated 3 times for each treatment.
as §5, with “(B) An” for “(A) An”, “Example 4” for “Example 1”

[16] = test system: smaller tea tortrix; assay: Insecticidal effect on smaller tea tortrix (apple leaf dip); format: in vivo; settings: Adoxophyes orana, foliar, read-out: Percent Mortality
Experimental: Leaves of an apple tree were dipped into a dilute water suspension of a wettable powder prepared as described in Formulation Example 5. After drying in air, the leaves were charged in a 60 ml volume cup made of vinyl chloride resin, and […] 3rd-instar larvae of smaller tea tortrix were put in each cup. The cups were capped and kept at 25°C. After 72 hours, the number of the surviving insects and the dead insects were recorded to determine percent mortality. In each treatment, 3 cups and 30 insects were used in total.

[17] = test system: tobacco cutworm; assay: Long-lasting insecticidal effect on tobacco cutworm (sprayed cabbage plantlet); format: in vivo, Prodenia litura; settings: Table 6, concentration 500 (unit not given), mortality after 48 hours; for Percent Mortality After Application 3rd Day: leaves cut on 3rd day; for Percent Mortality After Application 5th Day: leaves cut on 5th day; for Percent Mortality After Application 7th Day: leaves cut on 7th day; for Percent Mortality After Application 10th Day: leaves cut on 10th day
Experimental: (§6) (A) An emulsifiable concentrate prepared as described in Formulation Example 2 was diluted with water to a predetermined concentration and sprayed onto a cabbage plantlet in a flower pot of 15 cm in diameter using a spray-gun sufficiently and the tests plants were placed in a green house. The leaves of the plants were cut off on the 3rd, 5th, 7th, 10th and 15th day and placed in a 60 ml volume cup and 3rd-instar larvae of tobacco cutworm were put in each cup. The cups were kept in an incubator (25°C). After 48 hours, percent mortality was assessed. The tests was replicated 3 times for each compound using 30 insects in each test.
as §6, with “(B) An” for “(A) An”, “Example 3” for “Example 2”, “and 1 5th” for “and 15th”

[18] = Table 1, 100 ppm, wettable powder as Formulation Example 5
[19] = Table 1, 500 ppm, wettable powder as Formulation Example 5
[20] = Table 2, 100 ppm, wettable powder as Formulation Example 7
[21] = Table 4, 100 ppm, emulsifiable concentrate as Formulation Example 3
[22] = Table 3, 500 ppm, emulsifiable concentrate as Formulation Example 1
[23] = Table 8, emulsifiable concentrate as Formulation Example 4
[24] = Table 9, 100 ppm, after 72 hours, 25°C, wettable powder as Formulation Example 5

SMILES: CCOP(=O)(Oc1ccc2c(c1)OC(CC)=C(C)C2(CC)CC)SC(C)CC (stereo not drawn) [Compound No. 19]
- Percent Mortality (%) [1, 18]: 100%
- Percent Mortality (%) [1, 19]: 100%
- Percent Mortality (%) [1, 20]: 100%
- Percent Mortality (%) [2, 21]: 100%
- mortality at 500 ppm ([3]; Table 10, wettable powder as Formulation Example 5, read-out: Percent Morality (%)): 100%
- Phytotoxicity: Tomato [4]: —
- Phytotoxicity: Tea [5]: —
- Phytotoxicity: Green Pepper [6]: —
- Phytotoxicity: Cabbage [7]: —
- Phytotoxicity: Cotton [8]: —
- Phytotoxicity: Apple [9]: —
- Phytotoxicity: Cucumber [10]: —
- Phytotoxicity: Beet [11]: —
- Phytotoxicity: Kidney Bean [12]: —
- Phytotoxicity: Rice [13]: —
- Phytotoxicity: Egg Plant [14]: —

SMILES: CCCSP(=O)(OCC)Oc1cccc2c1C(C)=CC(C)(C)O2 (stereo not drawn) [Compound No. 22]
- Percent Mortality (%) [1, 18]: 100%
- Percent Mortality (%) [1, 19]: 100%
- Percent Mortality (%) [1, 20]: 100%
- Percent Mortality (%) [2, 22]: 100%
- Percent Mortality (%) [2, 21]: 100%
- Phytotoxicity: Tomato [4]: —
- Phytotoxicity: Tea [5]: —
- Phytotoxicity: Green Pepper [6]: —
- Phytotoxicity: Cabbage [7]: —
- Phytotoxicity: Cotton [8]: —
- Phytotoxicity: Apple [9]: —
- Phytotoxicity: Cucumber [10]: —
- Phytotoxicity: Beet [11]: —
- Phytotoxicity: Kidney Bean [12]: —
- Phytotoxicity: Rice [13]: —
- Phytotoxicity: Egg Plant [14]: —
- Percent Mortality (%) ([15]; Table 7, emulsifiable concentrate as Formulation Example 1): 100%
- Percent Mortality (%) [15, 23]: 100%
- mortality at 100 ppm [16, 24]: 100%
- Percent Mortality After Application 3rd Day [17]: 100%
- Percent Mortality After Application 5th Day [17]: 100%
- Percent Mortality After Application 7th Day [17]: 73.3%
- Percent Mortality After Application 10th Day [17]: 53.3%
- Percent Mortality After Application Immediately after Application [17]: 100%

SMILES: CCC(C)SP(=O)(OC)Oc1ccc2c(c1)OC(C)(C)C=C2C (stereo not drawn) [Compound No. 24]
- Percent Mortality (%) [1, 20]: 100%
- Percent Mortality (%) [2, 21]: 100%
- mortality at 500 ppm ([3]; Table 11, wettable powder as Formulation Example 7, read-out: Percent Mortality (%)): 100%
- Phytotoxicity: Tomato [4]: —
- Phytotoxicity: Tea [5]: —
- Phytotoxicity: Green Pepper [6]: —
- Phytotoxicity: Cabbage [7]: —
- Phytotoxicity: Cotton [8]: —
- Phytotoxicity: Apple [9]: —
- Phytotoxicity: Cucumber [10]: —
- Phytotoxicity: Beet [11]: —
- Phytotoxicity: Kidney Bean [12]: —
- Phytotoxicity: Rice [13]: —
- Phytotoxicity: Egg Plant [14]: —
- Percent Mortality (%) [15, 23]: 100%
- Percent Mortality After Application 3rd Day [17]: 100%
- Percent Mortality After Application 5th Day [17]: 93.3%
- Percent Mortality After Application 7th Day [17]: 60.0%
- Percent Mortality After Application 10th Day [17]: 23.3%
- Percent Mortality After Application Immediately after Application [17]: 100%

SMILES: CCOP(=S)(OCC)Oc1cc(C)nc(C(C)C)n1 [Diazinon, 0,0-diethyl (O-2-isopropyl-6-methyl-pyrimidin-4-yl)phosphorothioate, reference compound]
- mortality at 100 ppm ([16]; 72 h): 43.3%

SMILES: CCOP(=O)(Oc1ccc2c(c1)OC(C)=CC2(C)C)SC(C)C (stereo not drawn) [compound 14]
- Percent Mortality (%) [1, 19]: 100%
- Percent Mortality (%) [2, 22]: 100%
- Phytotoxicity: Tomato [4]: —
- Phytotoxicity: Tea [5]: —
- Phytotoxicity: Green Pepper [6]: —
- Phytotoxicity: Cabbage [7]: —
- Phytotoxicity: Cotton [8]: —
- Phytotoxicity: Apple [9]: —
- Phytotoxicity: Cucumber [10]: —
- Phytotoxicity: Beet [11]: —
- Phytotoxicity: Kidney Bean [12]: —
- Phytotoxicity: Rice [13]: —
- Phytotoxicity: Egg Plant [14]: —
- mortality at 100 ppm [16, 24]: 83.3%
